In general, Dmax refers to the largest share of the target that was removed. Higher therefore signals deep degradation. The term DC50 denotes the midpoint of the concentration-degradation curve.

Results on 25 compounds are retold here after patent US12624044B2, “SMARCA degraders and uses thereof” (Kymera Therapeutics, Inc., priority 2019, dated 2026).

A value given as a limit tells only on which side of the number the result lay.

The target in the experiment is SMARCA2 (Homo sapiens, UniProt P51531). Nature of the experiment: MSD SMARCA2 degradation in A549 cell line. Format: cell-based. Particulars: 24 h; for Dmax: A549, A549 cells; for DC50: A549 cells, read-out: SMARCA2 MSD A549 degradation 24 h: Average external-Abs DC50. How it is done:
Cells were seeded into 96-well plates (A549 cells: 2×10^4 cells/well/100 ul media) abd incubated overnight. The next day, 200 nl compound were added into the intermediate plate with Echo (Labcyte 550) from source plate containing a 3-fold serial dilution from top concentration of 1 mM. The culture medium was changed with 80 ul of fresh medium and 80 ul of 2× compound solution was added into the well to make a final concentration of 1000 nM, 333.3 nM, 111.1 nM, 37.04 nM, 12.35 nM, 4.115 nM, 1.372 nM, 0.457 nM, 0.152 nM and 0 nM (DMSO). The wells were mixed and then incubated for 24 hours. The media was aspirated from the cultures and 60 ul pre-chilled PIPA lysis buffer (Boston BioProducts BP-115D) with protease/phosphatase inhibitor (Roche 05892791001/Roche 04906837001) was added into the well to lyze the cells for 20 minutes at 4° C. The MSD plate (L15XA) was coated with 40 ul cell lysate and incubated at 4° C. overnight. The next day, the plate was washed three times with TBST (CST #9997S), 150 ul/well. The MSD plates was blocked with 150 ul blocking buffer per well and shaked for 1 hr at RT, 600 rpm. The blocking buffer was 3% Blocker A (MSD, R93BA-4) in TBST. The MSD plate was washed three times with 150 ul/well of TBST and 25 ul/well of detection antibody (Rabbit anti-SMARCA2/BRM antibody, 100 μg/ml, ab223735) was added at final concentration of 1 ug/ml diluted in 1% Blocking buffer and shaken for 1 hour at RT, 600 rpm. The MSD plate was washed three times with 150 ul/well of TBST and 25 ul/well of SULFO-TAG anti-rabbit antibody (MSD, R32AB-1) was added at final concentration of 1 ug/ml diluted in 1% Blocking buffer and shaken for 1 hour at RT, 600 rpm. The MSD plate was washed three times with 150 ul/well of TBST and 150 ul/well of 2×MSD reading buffer diluted from 4× (MSD, R92TC-2) with water was added. Lastly, the MSD instrument was read.
The letter codes for the percentage of SMARCA2 degradation after 24 hours (Dmax %) include: A (>90% degradation), B (>70-90% degradation), C (50-70% degradation), and D (<50% degradation).

SMARCA2, sequence (P51531 whole entry): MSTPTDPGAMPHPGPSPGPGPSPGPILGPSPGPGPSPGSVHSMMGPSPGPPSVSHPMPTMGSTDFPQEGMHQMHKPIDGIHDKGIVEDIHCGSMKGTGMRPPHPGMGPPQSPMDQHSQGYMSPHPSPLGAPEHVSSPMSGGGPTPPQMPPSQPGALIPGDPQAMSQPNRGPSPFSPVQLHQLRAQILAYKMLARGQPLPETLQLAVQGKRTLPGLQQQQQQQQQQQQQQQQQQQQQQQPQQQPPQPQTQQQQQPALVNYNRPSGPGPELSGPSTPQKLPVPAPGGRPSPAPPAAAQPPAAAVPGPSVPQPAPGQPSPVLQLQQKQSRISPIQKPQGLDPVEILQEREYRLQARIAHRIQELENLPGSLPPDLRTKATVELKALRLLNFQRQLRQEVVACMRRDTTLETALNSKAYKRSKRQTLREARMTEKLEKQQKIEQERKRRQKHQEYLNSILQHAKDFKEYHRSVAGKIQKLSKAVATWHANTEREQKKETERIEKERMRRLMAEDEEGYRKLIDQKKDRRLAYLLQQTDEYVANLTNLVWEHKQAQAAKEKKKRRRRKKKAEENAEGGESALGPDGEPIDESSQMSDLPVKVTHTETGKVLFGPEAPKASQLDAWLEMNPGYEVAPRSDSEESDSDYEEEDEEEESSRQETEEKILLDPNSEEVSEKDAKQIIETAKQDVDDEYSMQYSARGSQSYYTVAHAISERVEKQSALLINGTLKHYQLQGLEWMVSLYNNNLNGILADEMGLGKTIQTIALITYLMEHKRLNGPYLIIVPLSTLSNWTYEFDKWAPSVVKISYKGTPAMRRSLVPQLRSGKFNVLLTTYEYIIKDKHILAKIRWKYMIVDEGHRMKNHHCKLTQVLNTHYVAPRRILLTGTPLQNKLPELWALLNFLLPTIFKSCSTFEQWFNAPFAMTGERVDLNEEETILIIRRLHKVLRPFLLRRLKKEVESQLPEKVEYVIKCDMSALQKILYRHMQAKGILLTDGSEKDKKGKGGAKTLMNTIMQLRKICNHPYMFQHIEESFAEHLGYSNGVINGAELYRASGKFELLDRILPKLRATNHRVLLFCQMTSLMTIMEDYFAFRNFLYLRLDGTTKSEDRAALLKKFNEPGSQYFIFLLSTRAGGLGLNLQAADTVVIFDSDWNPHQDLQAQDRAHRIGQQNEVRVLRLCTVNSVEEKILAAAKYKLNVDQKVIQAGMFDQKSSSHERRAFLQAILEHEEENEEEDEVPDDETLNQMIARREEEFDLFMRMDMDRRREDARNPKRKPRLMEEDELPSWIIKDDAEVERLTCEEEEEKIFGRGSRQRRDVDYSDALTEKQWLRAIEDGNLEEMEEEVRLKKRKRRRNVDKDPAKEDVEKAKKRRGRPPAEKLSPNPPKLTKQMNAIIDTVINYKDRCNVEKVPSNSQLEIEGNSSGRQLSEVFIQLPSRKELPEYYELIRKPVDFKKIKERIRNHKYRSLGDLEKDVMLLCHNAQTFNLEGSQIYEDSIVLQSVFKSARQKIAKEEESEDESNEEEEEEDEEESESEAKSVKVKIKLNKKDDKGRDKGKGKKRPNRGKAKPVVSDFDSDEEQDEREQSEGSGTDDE

`Cc1ncsc1-c1ccc(CNC(=O)[C@@H]2C[C@@H](O)CN2C(=O)[C@@H](NC(=O)CCN2CCC[C@@H](Cn3cc(-c4cc(-c5ccccc5O)nnc4N)cn3)C2)C(C)(C)C)cc1` [I-470]: the Dmax was below 50% and the DC50 is above 1000 nM.
On the same counts, the results for `Cc1ncsc1-c1ccc(CNC(=O)[C@@H]2C[C@@H](O)CN2C(=O)[C@@H](NC(=O)CCCN2CCN(Cc3ccc(-c4cc(-c5ccccc5O)nnc4N)cc3)CC2)C(C)(C)C)cc1` [I-475, (2S,4R)-1-((S)-2-(4-(4-(4-(3-amino-6-(2-hydroxyphenyl)pyridazin-4-yl)benzyl)piperazin-1-yl)butanamido)-3,3-dimethylbutanoyl)-4-hydroxy-N-(4-(4-methylthiazol-5-yl)benzyl)pyrrolidine-2-carboxamide] are below 50% and above 1000 nM.
On the same counts, the results for `Cc1ncsc1-c1ccc(CNC(=O)[C@@H]2C[C@@H](O)CN2C(=O)[C@@H](NC(=O)CNCc2cccc(C#Cc3cc(NC(=O)Nc4cc(F)ncc4CO)ccn3)c2)C(C)(C)C)cc1` [I-487, (2S,4R)-1-((S)-2-(2-((3-((4-(3-(2-fluoro-5-(hydroxymethyl)pyridin-4-yl)ureido)pyridin-2-yl)ethynyl)benzyl)amino)acetamido)-3,3-dimethylbutanoyl)-4-hydroxy-N-(4-(4-methylthiazol-5-yl)benzyl)pyrrolidine-2-carboxamide] are below 50% and above 1000 nM.
The like results for `Cc1ncsc1-c1ccc(CNC(=O)[C@@H]2C[C@@H](O)CN2C(=O)[C@@H](NC(=O)CCCNCc2cccc(C#Cc3cc(NC(=O)Nc4cc(F)ncc4CO)ccn3)c2)C(C)(C)C)cc1` [I-488] were, in that order, below 50% and above 1000 nM.
For `Cc1ncsc1-c1ccc(CNC(=O)[C@@H]2C[C@@H](O)CN2C(=O)[C@@H](NC(=O)CCCCCNCc2cccc(C#Cc3cc(NC(=O)Nc4cc(F)ncc4CO)ccn3)c2)C(C)(C)C)cc1` [I-489], the Dmax is below 50% and the DC50 is above 1000 nM.
The like results for `Cc1ncsc1-c1ccc(CNC(=O)[C@@H]2C[C@@H](O)CN2C(=O)[C@@H](NC(=O)CCCCCCCNCc2cccc(C#Cc3cc(NC(=O)Nc4cc(F)ncc4CO)ccn3)c2)C(C)(C)C)cc1` [I-490] were, in that order, below 50% and above 1000 nM.
The like results for `Cc1ncsc1-c1ccc(CNC(=O)[C@@H]2C[C@@H](O)CN2C(=O)[C@@H](NC(=O)CNCc2ccc(C#Cc3cc(NC(=O)Nc4cc(F)ncc4CO)ccn3)cc2)C(C)(C)C)cc1` [I-491] were, in that order, below 50% and above 1000 nM.
The like results for `Cc1ncsc1-c1ccc(CNC(=O)[C@@H]2C[C@@H](O)CN2C(=O)[C@@H](NC(=O)CCCCCNCc2ccc(C#Cc3cc(NC(=O)Nc4cc(F)ncc4CO)ccn3)cc2)C(C)(C)C)cc1` [I-493] were, in that order, below 50% and above 1000 nM.
In the case of `Cc1ncsc1-c1ccc(CNC(=O)[C@@H]2C[C@@H](O)CN2C(=O)[C@@H](NC(=O)CCCCCCCNCc2ccc(C#Cc3cc(NC(=O)Nc4cc(F)ncc4CO)ccn3)cc2)C(C)(C)C)cc1` [I-494], the Dmax is below 50% and the DC50 is above 1000 nM.
On the same counts, the results for `Cc1ncsc1-c1ccc(CNC(=O)[C@@H]2C[C@@H](O)CN2C(=O)[C@@H](NC(=O)CCCN(C)CC#Cc2cnc(N3C4CCC3CN(c3cc(-c5ccccc5O)nnc3N)C4)nc2)C(C)(C)C)cc1` [I-497] are below 50% and above 1000 nM.
On the same counts, the results for `Cc1ncsc1-c1ccc(CNC(=O)[C@@H]2C[C@@H](O)CN2C(=O)[C@@H](NC(=O)CN2CCC(c3cccc(C#Cc4cc(NC(=O)Nc5cc(F)ncc5CO)ccn4)c3)CC2)C(C)(C)C)cc1` [I-498] are below 50% and above 1000 nM.
On the same counts, the results for `Cc1ncsc1-c1ccc(CNC(=O)[C@@H]2C[C@@H](O)CN2C(=O)[C@@H](NC(=O)CCCN2CCC(c3cccc(C#Cc4cc(NC(=O)Nc5cc(F)ncc5CO)ccn4)c3)CC2)C(C)(C)C)cc1` [I-499, (2S,4R)-1-[(2S)-2-[4-[4-[3-[2-[4-[[2-fluoro-5-(hydroxymethyl)-4-pyridyl]carbamoylamino]-2-pyridyl]ethynyl]phenyl]-1-piperidyl]butanoylamino]-3,3-dimethyl-butanoyl]-4-hydroxy-N-[[4-(4-methylthiazol-5-yl)phenyl]methyl]pyrrolidine-2-carboxamide] are below 50% and above 1000 nM.
On to `Cc1ncsc1-c1ccc(CNC(=O)[C@@H]2C[C@@H](O)CN2C(=O)[C@@H](NC(=O)CN2CCC(c3ccc(C#Cc4cc(NC(=O)Nc5cc(F)ncc5CO)ccn4)cc3)CC2)C(C)(C)C)cc1` [I-500, (2S,4R)-1-((S)-2-(2-(4-(4-((4-(3-(2-fluoro-5-(hydroxymethyl)pyridin-4-yl)ureido)pyridin-2-yl)ethynyl)phenyl)piperidin-1-yl)acetamido)-3,3-dimethylbutanoyl)-4-hydroxy-N-(4-(4-methylthiazol-5-yl)benzyl)pyrrolidine-2-carboxamide], for which the Dmax was below 50% and the 50% degradation concentration (DC50) is above 1000 nM.
Consider `Cc1ncsc1-c1ccc(CNC(=O)[C@@H]2C[C@@H](O)CN2C(=O)[C@@H](NC(=O)CCCN2CCC(c3ccc(C#Cc4cc(NC(=O)Nc5cc(F)ncc5CO)ccn4)cc3)CC2)C(C)(C)C)cc1` [I-501], for which the Dmax is below 50% and the 50% degradation concentration (DC50) is above 1000 nM.
The like results for `Cc1ncsc1-c1ccc(CNC(=O)[C@@H]2C[C@@H](O)CN2C(=O)[C@@H](NC(=O)N2CCC3(CCC(c4cnc(N5C6CCC5CN(c5cc(-c7ccccc7O)nnc5N)C6)nc4)CC3)CC2)C(C)(C)C)cc1` [I-510] were, in that order, above 90% and 100 to 500 nM.
On the same counts, the results for `Cc1ncsc1-c1ccc(CNC(=O)[C@@H]2C[C@@H](O)CN2C(=O)[C@@H](NC(=O)C2(F)CC2)C2CCC(N(C)CCCC#Cc3cnc(N4C5CCC4CN(c4cc(-c6ccccc6O)nnc4N)C5)nc3)CC2)cc1` (some centres unmarked) [I-517] are 50 to 70% and 501 to 1000 nM.
Turning to `Cc1ncsc1-c1ccc(CNC(=O)[C@@H]2C[C@@H](O)CN2C(=O)C(NC(=O)C2(F)CC2)C2CCC(N(C)CCCCCc3cnc(N4C5CCC4CN(c4cc(-c6ccccc6O)nnc4N)C5)nc3)CC2)cc1` (some centres unmarked) [I-519], the Dmax was below 50% and the DC50 was above 1000 nM.
On the same counts, the results for `Cc1ncsc1-c1ccc(CNC(=O)[C@@H]2C[C@@H](O)CN2C(=O)C(NC(=O)C2(F)CC2)C2CCC(N(C)CCCCCCCc3cnc(N4C5CCC4CN(c4cc(-c6ccccc6O)nnc4N)C5)nc3)CC2)cc1` (stereo partly drawn) [I-520, (2S,4R)-1-[2-[4-[7-[2-[3-[3-amino-6-(2-hydroxyphenyl)pyridazin-4-yl]-3,8-diazabicyclo[3.2.1]octan-8-yl]pyrimidin-5-yl]heptyl-methyl-amino]cyclohexyl]-2-[(1-fluorocyclopropanecarbonyl)amino]acetyl]-4-hydroxy-N-[[4-(4-methylthiazol-5-yl)phenyl]methyl]pyrrolidine-2-carboxamide] are below 50% and above 1000 nM.
The like results for `COCC(=O)N1CCCc2cc(OCC(=O)NCCCN3CCC(c4cnc(N5C6CCC5CN(c5cc(-c7ccccc7O)nnc5N)C6)nc4)CC3)ccc21` [I-526] were, in that order, below 50% and above 1000 nM.
The like results for `COc1ccccc1-c1cc(N2CC3CCC(C2)N3c2ncc(C3CCN(CCCNC(=O)COc4ccc5c(c4)CCCN5C(=O)CCl)CC3)cn2)c(N)nn1` [I-527] were, in that order, below 50% and above 1000 nM.
For `Nc1nnc(-c2ccccc2O)cc1N1CC2CCC(C1)N2c1ncc(C2CCN(CCCCNC(=O)COc3ccc4c(c3)CCCN4C(=O)CCl)CC2)cn1` [I-528], the Dmax is below 50% and the DC50 was above 1000 nM.
For `Nc1nnc(-c2ccccc2O)cc1N1CC2CCC(C1)N2c1ncc(C2CCN(CCCCCCNC(=O)COc3ccc4c(c3)CCCN4C(=O)CCl)CC2)cn1` [I-529], the greatest degradation seen (Dmax) is below 50% and the DC50 is above 1000 nM.
On the same counts, the results for `Nc1nnc(-c2ccccc2O)cc1N1CC2CCC(C1)N2c1ncc(C2CCN(CCCCOc3ccc(Oc4ccc(N(Cc5ccccc5)C(=O)CCl)cc4)cc3)CC2)cn1` [I-530] are below 50% and above 1000 nM.
The like results for `Nc1nnc(-c2ccccc2O)cc1N1CC2CCC(C1)N2c1ncc(C2CCN(CCCCCCOc3ccc(Oc4ccc(N(Cc5ccccc5)C(=O)CCl)cc4)cc3)CC2)cn1` [I-531] were, in that order, below 50% and above 1000 nM.
On the same counts, the results for `Nc1nnc(-c2ccccc2O)cc1N1CC2CCC(C1)N2c1ncc(C2CCN(CCCCCCCCOc3ccc(Oc4ccc(N(Cc5ccccc5)C(=O)CCl)cc4)cc3)CC2)cn1` [I-532] are 50 to 70% and above 1000 nM.
